Laboratory results published in ChEMBL document CHEMBL6115010, “Targeting glioma with heteroaromatic alkaloids: A review of potential therapeutics” (Bioorg Med Chem, 2025).
pIC50: −log10 of the molar value. In brackets after ≈: the same amount, converted by molar mass.

Experiments:
[1] = test system: SK-N-SH; assay: Induction of apoptosis in human SK-N-SH cells assessed as early apoptotic cells at 100 micromol/L incubated for 48 hrs by Annexin V-FITC/Propidium Iodide staining based flow cytometry analysis (reference value: 10.3 %); type: functional; details: dose 100 µmol/L, at 100 µM
[2] = test system: SK-N-SH; assay: Induction of apoptosis in human SK-N-SH cells assessed as early apoptotic cells at 200 micromol/L incubated for 48 hrs by Annexin V-FITC/Propidium Iodide staining based flow cytometry analysis (reference value: 10.3 %); type: functional; details: dose 200 µmol/L, at 200 µM
[3] = test system: U-87 MG; assay: Cytotoxicity against human U-87 MG cells assessed as reduction in cell viability at 400 uM measured for 24 hrs relative to control; type: functional, U-87MG ATCC
[4] = test system: T98G; assay: Cytotoxicity against human T98G cells assessed as reduction in cell viability at 400 uM measured for 24 hrs relative to control; type: functional
[5] = test system: SH-SY5Y; assay: Cytotoxicity against human SH-SY5Y cells assessed as reduction in cell viability incubated for 24 hrs by MTT assay; type: functional, cell-based
[6] = test system: U-251; assay: Cytotoxicity against human U-251MG cells assessed as cell growth inhibition incubated for 24 hrs by MTT assay; type: functional, cell-based; details: U-251, 24 h
[7] = Antiproliferative activity against mouse GL26 cells assessed as reduction in cell viability measured for 96 hrs by MTT assay; type: functional, cell-based; details: GL26, 96 h
[8] = test system: U-87 MG; assay: Antiproliferative activity against human U-87 MG cells assessed as reduction in cell viability measured for 96 hrs by MTT assay; type: functional, cell-based, U-87MG ATCC
[9] = test system: SNB-19; assay: Antiproliferative activity against human SNB-19 cells assessed as reduction in cell viability measured for 96 hrs by MTT assay; type: functional, cell-based; details: SNB-19, 96 h
[10] = test system: C6; assay: Antiproliferative activity against rat C6 cells assessed as reduction in cell viability measured for 96 hrs by MTT assay; type: functional, cell-based; details: C6, 96 h
[11] = test system: 9L; assay: Antiproliferative activity against rat 9L cells assessed as reduction in cell viability measured for 96 hrs by MTT assay; type: functional, cell-based
[12] = test system: U-87 MG; assay: Antitumor activity against human U-87MG cells xenografted in athymic nude mouse model assessed as tumor growth inhibition at 30 mg/kg, ip administered once daily for 12 days relative to control; type: functional, U-87MG ATCC; details: 288 h, time 12 day, read-out: TGI
[13] = test system: C6; assay: Antitumor activity against rat C6 cells implanted in athymic nude mouse model assessed as tumor growth inhibition at 30 mg/kg, ip administered once daily for 12 days and measured after 34 days relative to control; type: functional; details: C6, 816 h, time 34 day, read-out: TGI
[14] = test system: C6; assay: Antitumor activity against rat C6 cells implanted in athymic nude mouse model assessed as tumor growth inhibition at 30 mg/kg, sc administered once daily for 12 days and measured after 34 days relative to control; type: functional; details: C6, 288 h, time 12 day, read-out: TGI
[15] = Antiproliferative activity against human U373 MG cells assessed as reduction in cell growth measured for 72 hrs by MTT assay; type: functional, cell-based, U-373MG ATCC
[16] = test system: U-87 MG; assay: Cytotoxicity against human U-87 MG cells assessed as reduction in cell viability incubated for 72 hrs by neutral red uptake assay; type: functional, cell-based, U-87MG ATCC
[17] = test system: MRC5; assay: Cytotoxicity against human MRC5 cells assessed as reduction in cell viability incubated for 72 hrs by neutral red uptake assay; type: functional, cell-based; details: MRC5, 72 h
[18] = test system: U-87 MG; assay: Cytotoxicity against human U-87 MG cells assessed as reduction in cell viability in presence of Delta-Tocotrienol incubated for 72 hrs by neutral red uptake assay; type: functional, cell-based, U-87MG ATCC
[19] = test system: U-87 MG; assay: Cytotoxicity against human U-87 MG cells assessed as reduction in cell viability in presence of Jerantinine B incubated for 72 hrs by neutral red uptake assay; type: functional, cell-based, U-87MG ATCC
[20] = test system: U-87 MG; assay: Synergistic antiproliferative activity against human U-87 MG cells assessed as combination index at 10 uM incubated for 48 hrs in presence of 1.5 microg/ml Delta-Tocotrienol; type: functional, U-87MG ATCC
[21] = test system: U-251; assay: Antiproliferative activity against human U-251MG cells assessed as inhibition of cell growth measured for 72 hrs by MTT assay; type: functional, cell-based; details: U-251, 72 h
[22] = test system: T98G; assay: Antiproliferative activity against human T98G cells assessed as inhibition of cell growth measured for 72 hrs by MTT assay; type: functional, cell-based
[23] = test system: U-251; assay: Cytotoxicity against human U-251MG cells assessed as inhibition of cell growth measured for 72 hrs by MTT assay; type: functional, cell-based; details: U-251, 72 h
[24] = test system: T98G; assay: Cytotoxicity against human T98G cells assessed as inhibition of cell growth measured for 72 hrs by MTT assay; type: functional, cell-based
[25] = test system: U-251; assay: Antiproliferative activity against human U-251MG cells assessed as inhibition of cell growth measured for 72 hrs; type: functional, cell-based; details: U-251, 72 h
[26] = test system: A 172; assay: Antiproliferative activity against human A-172 cells assessed as inhibition of cell growth measured for 72 hrs; type: functional, cell-based; details: A 172, 72 h
[27] = Antiproliferative activity against human D-54MG cells assessed as inhibition of cell growth measured for 72 hrs; type: functional, cell-based; details: D54MG
[28] = test system: U-87 MG; assay: Antiproliferative activity against human U-87 MG cells assessed as inhibition of cell growth measured for 72 hrs; type: functional, cell-based, U-87MG ATCC
[29] = test system: T98G; assay: Antiproliferative activity against human T98G cells assessed as inhibition of cell growth measured for 72 hrs; type: functional, cell-based
[30] = Cytotoxicity against rat ACNU-resistant C6 cells assessed as reduction in cell growth incubated for 24 hrs by MTT assay; type: functional, cell-based
[31] = Cytotoxicity against rat ACNU-resistant C6/ACNU cells assessed as reduction in cell growth incubated for 24 hrs by MTT assay; type: functional, cell-based
[32] = Cytotoxicity against rat ACNU-resistant C6 cell assessed as reduction in cell growth in presence of reserpine at 10 uM incubated for 24 hrs by MTT assay; type: functional, cell-based
[33] = Cytotoxicity against rat ACNU-resistant C6 cell assessed as reduction in cell growth in presence of reserpine at 20 uM incubated for 24 hrs by MTT assay; type: functional, cell-based
[34] = Cytotoxicity against rat ACNU-resistant C6/ACNU cells assessed as reduction in cell growth in presence of reserpine at 10 uM incubated for 24 hrs by MTT assay; type: functional, cell-based
[35] = Cytotoxicity against rat ACNU-resistant C6/ACNU cells assessed as reduction in cell growth in presence of reserpine at 20 uM incubated for 24 hrs by MTT assay; type: functional, cell-based
[36] = Antitumor activity against rat C6/ACNUcells implanted in Wistar rat assessed as increase in life span at 1 mg/kg relative to control; type: functional, C6/ACNU
[37] = test system: U-251; assay: Antiproliferative activity against human U-251MG cells assessed as reduction in cell growth measured for 48 hrs by MTT assay; type: functional, cell-based; details: U-251, 48 h

For Nc1ncnc2c1ncn2[C@@H]1O[C@H](CO)C[C@H]1O [CORDYCEPIN], the Activity [1] was 29.8%, the Activity [2] was 29.8% and the Activity [3] was 35%. It also gave an Activity [4] of 76%, a pIC50 [5] of 3.76 and a pIC50 [6] of 3.60.

With CC(C)=CCC/C(C)=C/CC/C(C)=C/CN1C(=O)c2cccc(O)c2Nc2c(O)cc(O)cc21 [DIAZEPINOMICIN] the pIC50 [7] was 5.05, the pIC50 [8] was 4.96 and the pIC50 [9] was 5.28. It also gave a pIC50 [10] of 5.37, a pIC50 [11] of 5.08 and an inhibition in vivo at 30 mg/kg [12] of 36%. It also gave an inhibition in vivo at 30 mg/kg [13] of 66% and an inhibition in vivo at 30 mg/kg [14] of 60%.

Work on O=C1NC(=O)c2c1c1[nH]cnc1c1[nH]c3ccccc3c21 [GRANULATIMIDE] yielded a pIC50 [15] of 5.22.

CC[C@@]12CC(C(=O)OC)=C3Nc4cc(OC)c(O)cc4[C@@]34CCN(C[C@@H]3O[C@@H]31)[C@@H]24 [JERANTININE B] gave an IC50 [16] of 0.74 µg/mL (≈ 1.86 µM), an IC50 [17] of 2.83 µg/mL (≈ 7.1 µM) and an IC50 [18] of 0.19 µg/mL. The IC50 [19] was 0.74 µg/mL and the CI [20] was 0.85.

In the case of COc1cc(/C=C/C(=O)NCCc2c[nH]c3ccc(O)cc23)ccc1O [N-FERULOYL SEROTONIN], the pIC50 [21] was 3.23, the pIC50 [22] was 3.14 and the pIC50 [23] was 3.62. For the same compound, the pIC50 [24] was 3.71.

Work on O=C(/C=C/c1ccc(O)cc1)NCCc1c[nH]c2ccc(O)cc12 [N-P-COUMAROYL SEROTONIN] yielded a pIC50 [25] of 4.11, a pIC50 [26] of 4.21 and a pIC50 [27] of 4.09. For the same compound, the pIC50 [28] was 4.32 and the pIC50 [29] was 4.17.

With Cc1ncc(CNC(=O)N(CCCl)N=O)c(N)n1.Cl [NIMUSTINE HYDROCHLORIDE] the IC50 [30] was 8.3 µg/mL, the IC50 [31] was 120 µg/mL and the IC50 [32] was 4.1 µg/mL. The IC50 [33] was 3.1 µg/mL, the IC50 [34] was 8 µg/mL and the IC50 [35] was 2.5 µg/mL. For the same compound, the Activity [36] was 143%.

With CC(C)(O)[C@H]1O[C@H]2CC[C@@]3(C)[C@@](O)(CC[C@H]4Cc5c([nH]c6ccccc56)[C@@]43C)C2=CC1=O [PAXILLINE] the pIC50 [37] was ~7.89.
